Structures are written as SMILES.

Usually inhibition stands for how much of the control response was suppressed. A higher inhibition goes with strong suppression.

The assay deals with Histamine H3 receptor (Rattus norvegicus) (UniProt Q9QYN8). The assay is described as follows: Inhibition of the specific binding of [3H](R)-alpha-methylhistamine ([3H]RMHA) to Histamine H3 receptor in rat brain membranes at 10e-8 M.
Chain of Histamine H3 receptor (Rattus norvegicus) (Q9QYN8 whole entry, looked up): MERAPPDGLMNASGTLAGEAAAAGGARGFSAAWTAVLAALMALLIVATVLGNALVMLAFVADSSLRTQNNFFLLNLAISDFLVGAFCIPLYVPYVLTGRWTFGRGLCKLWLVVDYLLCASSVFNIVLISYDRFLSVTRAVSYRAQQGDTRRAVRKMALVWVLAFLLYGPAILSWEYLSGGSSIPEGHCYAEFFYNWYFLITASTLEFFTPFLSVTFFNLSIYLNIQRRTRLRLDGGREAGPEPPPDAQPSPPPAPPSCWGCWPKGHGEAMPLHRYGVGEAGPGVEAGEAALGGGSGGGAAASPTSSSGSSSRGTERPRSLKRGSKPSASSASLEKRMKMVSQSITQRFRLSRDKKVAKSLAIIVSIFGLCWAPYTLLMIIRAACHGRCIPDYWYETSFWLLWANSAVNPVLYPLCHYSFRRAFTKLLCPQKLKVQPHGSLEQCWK
On to `OC/C=C/c1ccccc1`, for which the inhibition was found to be 33.5%.

In turn, `C/C=C/CO` displayed an inhibition of 10%.

For the compound `O=C(O)C1C[C@@H]1c1c[nH]cn1` (single isomer, unassigned), the inhibition came out at 11.6%.

`C/C=C\CO` had an inhibition of 3.7%.

With `OC/C=C\c1ccccc1`, the inhibition was found to be 4.3%.

The values are drawn from ChEMBL document CHEMBL1135006, “Synthesis and biological evaluation of novel 2-(1H-imidazol-4-yl)cyclopropane carboxylic acids: key intermediates for H3 histamine receptor ligands” (Bioorg Med Chem Lett, 2002).
